Experiment [1] concerns the target mushroom tyrosinase. Put plainly: enzyme kinetics with L-DOPA substrate, Lineweaver-Burk plot; IC50 […] also reported. The experiment is classed as biochemical.
Experiment [2] relates to mushroom tyrosinase. The experiment is described as follows: cell-free tyrosinase inhibition assay with L-tyrosine substrate, absorbance at […] nm. It is filed as biochemical.

pKi: −log10 of the molar value. ≈ marks a conversion by molar mass, not a printed value.

As a reminder, the pKi is the Ki on a negative log10 scale, so that one unit is a factor of ten. A high value points to a low Ki. Compound `CCOC(=O)c1cc(O)c(O)c(O)c1` [Compound 1, ethyl gallate] showed a pKi on mushroom tyrosinase [1] of 3.36.
One may read the IC50 as the concentration needed to halve the response being measured. A higher IC50 goes with weaker potency. In the case of `O=C1O[C@H]([C@@H](O)CO)C(O)=C1O` [ascorbic acid], in the experiment with mushroom tyrosinase [2], the IC50 worked out at 30.99 ± 0.86 µg/mL (≈ 176 µM).

For the origin of these results see article PMC9952331, “Ethyl Gallate Isolated from Castanopsis cuspidata var. sieboldii Branches Inhibits Melanogenesis and Promotes Autophagy in B16F10 Cells” (Antioxidants, 2023).
